Reference: US12516099B2, “Processes for generating engineered cells and compositions thereof” (Juno Therapeutics, Inc., priority 2018, dated 2026)

Experiments:
CD4+ and CD8+ T cells [1] = assay: Intracellular cytokines after PMA/Ionomycin and Golgi inhibitor; format: cell-based, human
Description: (§1) Thawed cells generated by the process described were assessed for a marker of apoptosis (e.g., percentage of caspase positive CAR-T cells), phenotypic profile, and ability to produce intracellular cytokines following stimulation with PMA/Ionomycin and a Golgi Inhibitor. […] Thawed cells also were stained for surface expression of CD27 and CCR7 by flow cytometry.

mTOR = target: T1, mTOR (Homo sapiens, UniProt P42345); assay: Intracellular S6 phosphorylation in engineered T cells produced with mTOR kinase inhibitor; format: cell-based; details: 1 μM Compound 63 during process; CD8+ memory subsets
T1 construct: endogenous in cells; host or cells: primary human CD4+ and CD8+ T cells transduced with an anti-CD19 CAR
Description: (§2) CD4+ and CD8+ T cells were isolated by immunoaffinity-based enrichment from leukapheresis samples from human donor subjects. At day 1, isolated CD4+ and CD8+ T cells were mixed 1:1 and stimulated with an anti-CD3/anti-CD28 oligomeric stimulatory reagent generated as described in Example 2 in serum-free media supplemented with recombinant IL-2 (100 IU/mL), recombinant IL-7 (600 IU/mL), and recombinant IL-15 (100 IU/mL) with or without 1 μM of 2-(3-hydroxyphenyl)-9-(2-isopropylphenyl)-8-oxo-8,9-dihydro-7H-purine-6-carboxamide (Compound 63). The T cells cultured with our without Compound 63 were incubated overnight (approximately 24 hr) at 37° C., and were then transduced in serum-free culture media with our without Compound 63 ([…]) with a lentiviral vector encoding an anti-CD19 CAR. […]
(§3) The cryofrozen engineered CD4+ and CD8+ T cells were thawed, and T cells were assessed for intracellular S6 phosphorylation, a ribosomal protein and marker of mTOR inhibition, and co-stained for surface expression of CD4 or CD8 and for CCR7 and CD45RA as markers of memory subsets. pS6 expression in live CD8+ T cells by memory subsets was shown by the expression of CCR7 and CD45RA as shown in FIG. 30A.

CAR-T cells = assay: Apoptosis marker (intracellular caspase) in thawed CAR-T cells; format: cell-based, human; details: vs cells not incubated with compound 63
Description: as §1

CD27 and CCR7 = assay: Surface CD27 and CCR7 phenotype of T cells produced with Compound 63; format: cell-based, human; details: CD8+ and CD4+ T cells
Description: as §1

CD4+ and CD8+ T cells [2] = assay: Percent viable and total live cells of T cell composition produced with Compound 63; format: cell-based, human; details: 1 μM Compound 63 during process
Description: as §2, §3

[3] = system: anti-idiotype (ID) antibody against the anti-CD19 CAR; assay: Long-term 12 day stimulation with anti-idiotype antibody beads; format: cell-based, human; details: 12 days anti-ID beads
Source text: To further assess the functional activity of the cells, the generated T cell compositions were stimulated long-term over 12 days with beads conjugated with an anti-idiotype (ID) antibody against the anti-CD19 CAR, and expansion and survival of the cells were monitored (FIG. 31F, left panel) and total expansion metric calculated by area under the curve (FIG. 31F, right panel).

CC(C)c1ccccc1-n1c(=O)[nH]c2c(C(N)=O)nc(-c3cccc(O)c3)nc21 [Compound 63, 2-(3-hydroxyphenyl)-9-(2-isopropylphenyl)-8-oxo-8,9-dihydro-7H-purine-6-carboxamide]
level of intracellular cytokines IL2, IFNg, or TNF (CD4+ and CD8+ T cells [1]): substantially improved | pS6 mean fluorescence intensity (marker of mTOR inhibition) (mTOR): decreased the mean fluorescence intensity of stimulated memory T cell subsets | intracellular caspase expression (CAR-T cells): less intracellular caspase expression | phenotypic subset profile by CD27 and/or CCR7 (CD27 and CCR7): did not substantially alter the phenotypic subset profile of the cells | percent viable cells or total live cells (CD4+ and CD8+ T cells [2]): did not impact the percent viable cells or the total live cells | expansion and survival after long-term CAR-specific stimulation [3]: improved function of the T cells was observed following long-term CAR-specific stimulation
